Measurements from patent US8269000B2, “Substituted pyrimidine and triazine compounds” (Gruenenthal GmbH, priority 2008, dated 2012).

Tests used:
human B1R = target: T1, human B1R (Homo sapiens, UniProt P46663); assay: FLIPR Ca2+ functional study on bradykinin receptor 1 (hB1R CHO K1 cells); assay type: cell-based; settings: % inhibition human B1R at 10 μM; for inhibition at 10 µM: read-out: % inh. (hum. B1R) 10 μM
T1 construct: expressed in transfected cells; host or cells: CHO K1 cells
T1 sequence (P46663 1-353): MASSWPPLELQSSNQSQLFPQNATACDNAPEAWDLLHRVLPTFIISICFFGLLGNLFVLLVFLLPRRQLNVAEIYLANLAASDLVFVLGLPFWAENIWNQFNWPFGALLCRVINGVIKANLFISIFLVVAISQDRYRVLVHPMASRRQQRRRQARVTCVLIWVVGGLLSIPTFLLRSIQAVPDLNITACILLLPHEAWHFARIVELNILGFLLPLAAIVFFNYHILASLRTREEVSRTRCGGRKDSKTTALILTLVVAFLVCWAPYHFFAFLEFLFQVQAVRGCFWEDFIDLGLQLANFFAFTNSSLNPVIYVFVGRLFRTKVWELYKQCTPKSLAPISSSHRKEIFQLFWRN
Procedure, shortened: (§1)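 CHO K1 cells stably expressing human or rat B1R were loaded with Fluo-4 and read on FLIPR (ex 488/em 540 nm, peak counts). Test compound (10 μM, or a concentration range for IC50) was added first for % activation versus control agonist; after 10-20 min, EC80 Lys-Des-Arg9-bradykinin (human) or Des-Arg9-bradykinin (rat) was added, giving % inhibition of maximum. n=2-3, N≥2.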

rat B1R = target: T2, rat B1R (Rattus norvegicus, UniProt P97583); assay: FLIPR Ca2+ functional study on bradykinin receptor 1 (rB1R CHO K1 cells); assay type: cell-based; settings: for inhibition at 10 µM: CHO-K1, % inhibition rat B1R at 10 μM, read-out: % inh. (rat B1R) 10 μM; for % inh. (rat B1R) 10 μM: % inhibition rat B1R at 10 μM
T2 construct: expressed in transfected cells; host or cells: CHO K1 cells
T2 sequence (P97583 1-337): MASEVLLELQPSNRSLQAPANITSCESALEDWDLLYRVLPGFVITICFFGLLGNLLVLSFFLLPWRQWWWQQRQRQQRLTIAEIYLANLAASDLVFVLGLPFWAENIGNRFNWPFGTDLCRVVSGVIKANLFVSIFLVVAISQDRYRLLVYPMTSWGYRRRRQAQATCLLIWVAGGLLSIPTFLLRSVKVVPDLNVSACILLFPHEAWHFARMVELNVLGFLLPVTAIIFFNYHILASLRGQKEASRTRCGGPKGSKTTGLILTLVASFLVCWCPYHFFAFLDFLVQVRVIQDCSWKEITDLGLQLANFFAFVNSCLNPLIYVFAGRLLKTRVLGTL
Procedure, shortened: as §1

| Compound | inhibition at 10 µM (human B1R) [%] | inhibition at 10 µM (rat B1R) [%] | % inh. (hum. B1R) 10 μM (human B1R) [%] | % inh. (rat B1R) 10 μM (rat B1R) [%] |
| --- | --- | --- | --- | --- |
| COc1cc(C)c(S(=O)(=O)N2CCC[C@H]2COc2nccc(N3CCC(Oc4ccncc4)CC3)n2)c(C)c1 [G_CC-052, 2-[[(2S)-1-(4-methoxy-2,6-dimethylphenyl)sulfonyl-2-pyrrlidinyl]methoxy]-4-[4-(4-pyridyloxy)-1-piperidinyl]pyrimidine] | – | – | 74 | 99 |
| COc1cc(C)c(S(=O)(=O)N2CCC[C@H]2COc2nccc(N3CCC4(CCN(c5ccncc5)CC4)CC3)n2)c(C)c1 [G_CC-055, 9-[2-[[(2S)-1-(4-methoxy-2,6-dimethylphenyl)sulfonyl-2-pyrrolidinyl)methoxy]-4-pyrimidinyl]-3-(4-pyridyl)-3,9-diazaspiro[5.5]undecane] | 97 | 101 | – | – |
| COc1cc(C)c(S(=O)(=O)N(C)C(COc2nccc(N3CCC(Oc4ccncc4)CC3)n2)c2ccccc2)c(C)c1 (stereo not shown) [G_CC-063, 4-methoxy-N,2,6-trimethyl-N-[1-phenyl-2-[[4-[4-(4-pyridyloxy)-1-piperidinyl]-2-pyrimidinyl]oxy]ethyl]benzenesulfonamide] | 28 | 101 | – | – |
| COc1cc(C)c(S(=O)(=O)N(C)CCOc2ccnc(N3CCC4(CCN(c5ccncc5)CC4)CC3)n2)c(C)c1 [H_CC-029, 4-methoxy-N,2,6-trimethyl-N-[2-[[2-[3-(4-pyridyl)-3,9-diazaspiro[5.5]undecan-9-yl]-4-pyrimidinyl]oxy]ethyl]benzenesulfonamide] | 92 | 101 | – | – |
| COc1cc(C)c(S(=O)(=O)N2CCCCC2COc2ccnc(N3CCC4(CCN(c5ccncc5)CC4)CC3)n2)c(C)c1 (stereo not shown) [H_CC-032] | – | – | 77 | 101 |

Next, values leading:

| inhibition at 10 µM (human B1R) [%] | inhibition at 10 µM (rat B1R) [%] | % inh. (hum. B1R) 10 μM (human B1R) [%] | % inh. (rat B1R) 10 μM (rat B1R) [%] | Compound |
| --- | --- | --- | --- | --- |
| 38 | 98 | – | – | COc1cc(C)c(S(=O)(=O)N2CCC[C@H]2COc2nccc(N3CCC4(CCN(Cc5ccc(F)cc5)C4=O)CC3)n2)c(C)c1 [G_CC-051, 3-[(4-fluorophenyl)methyl]-8-[2-[[(2S)-1-(4-methoxy-2,6-dimethylphenyl)sulfonyl-2-pyrrolidinyl]methoxy]-4-pyrimidinyl]-3,8-diazaspiro[4.5]decan-4-one] |
| 17 | 88 | – | – | COc1cc(C)c(S(=O)(=O)N(C)C(COc2nccc(N3CCC4(CCN(Cc5ccc(F)cc5)C4=O)CC3)n2)c2ccccc2)c(C)c1 (stereo not shown) [G_CC-060, N-[2-[[4-[3-[(4-fluorophenyl)methyl]-4-oxo-3,8-diazaspiro[4.5]decan-8-yl]-2-pyrimidinyl]oxy]-1-phenylethyl]-4-methoxy-N,2,6-trimethylbenzenesulfonamide] |
| 54 | 102 | – | – | COc1cc(C)c(S(=O)(=O)N(C)C(COc2ccnc(N3CCC4(CCN(c5ccncc5)CC4)CC3)n2)c2ccccc2)c(C)c1 (stereo not shown) [H_CC-037, 4-methoxy-N,2,6-trimethyl-N-[1-phenyl-2-[[2-[3-(4-pyridyl)-3,9-diazaspiro[5.5]undecan-9-yl]-4-pyrimidinyl]oxy]ethyl]benzenesulfonamide] |
